PubChem BioAssay (NCI)
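Method: 48-hour compound exposure of cells in 96-well plates, five concentrations, linear interpolation of endpoints. TGI is the concentration that stops growth completely.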

Columns and labels:
Experiment in all cases: NCI tumour cell line growth inhibition, 48 h
[1] = tested on: CCRF-CEM leukemia
[2] = tested on: SW-620 colon
[3] = tested on: SF-268 CNS
[4] = tested on: OVCAR-5 ovarian
[5] = tested on: K-562 leukemia
[6] = tested on: TK-10 renal
[7] = tested on: OVCAR-4 ovarian
[8] = tested on: UACC-257 melanoma
[9] = tested on: SNB-19 CNS
[10] = tested on: A498 renal

| SMILES | TGI [1] | TGI [2] | TGI [3] | TGI [4] | TGI [5] | TGI [6] | TGI [7] | TGI [8] | TGI [9] | TGI [10] |
| --- | --- | --- | --- | --- | --- | --- | --- | --- | --- | --- |
| O=C1CS(=O)(=O)C(c2cccc(Oc3ccccc3)c2)N1C1CC1 (centres undefined) | > 100 µM | > 100 µM | > 100 µM | > 100 µM | > 100 µM | > 100 µM | 64.2 µM | > 100 µM | > 100 µM |  |
| N#Cc1c(-c2ccc(Cl)cc2)c2c([nH]c1=O)-c1cc([N+](=O)[O-])ccc1CCC2 | > 100 µM | > 100 µM | 44.2 µM | 37.6 µM | > 100 µM | 69.5 µM | > 100 µM | 57 µM | 56.8 µM | 37.7 µM |
| COc1cc(C2C(=O)C(Cl)N2Nc2nc(C)cc(=O)[nH]2)cc(OC)c1OC (centres undefined) |  | > 100 µM | > 100 µM | > 100 µM | 41.1 µM | > 100 µM | 56.2 µM | > 100 µM | > 100 µM |  |
| CCN(CCO)CCNc1ccc(C)c2sc3ccccc3c(=O)c12 | 27.6 µM | 5.5 µM | 20.9 µM | 12.5 µM | 11.9 µM | 21.4 µM | 21.7 µM | 6.16 µM | 24.7 µM | 31.2 µM |
| O=c1[nH]c(=O)n(CCOCP(=O)(O)O)nc1Br | > 100 µM | > 100 µM | > 100 µM | > 100 µM |  | > 100 µM |  |  | > 100 µM | > 100 µM |
| Cc1ccc2c3c1[C@@H]1O[C@@H]1c1cccc(c1-3)[C@@H]1O[C@H]21 |  |  | 34.1 µM | 34 µM | 37.5 µM | 38.5 µM | 33.3 µM | 33 µM | 49.9 µM | 43.6 µM |
| O=S(=O)(O)c1ccc2c(N=Nc3ccccc3)c(O)ccc2c1 | > 100 µM | > 100 µM | > 100 µM | > 100 µM | > 100 µM | > 100 µM | > 100 µM | > 100 µM | > 100 µM | > 100 µM |
| COc1ccc(N=Nc2c(N)nn(C)c2N)cc1 | > 100 µM | > 100 µM | > 100 µM | > 100 µM | > 100 µM | > 100 µM | > 100 µM | > 100 µM | > 100 µM | > 100 µM |
| CCCCCCCCCCCCSC(=S)c1c(C)[nH]n(CCCCCCCCCCCC)c1=O | > 100 µM | > 100 µM | > 100 µM | > 100 µM | > 100 µM |  | > 100 µM | > 100 µM | > 100 µM | > 100 µM |
| N=C(N)c1ccc(N=Nc2c(O)ccc3cc4c(N=Nc5ccc(C(=N)N)cc5)c(O)ccc4cc23)cc1 | > 100 µM | > 100 µM | > 100 µM | > 100 µM | > 100 µM | > 100 µM | > 100 µM | > 100 µM | > 100 µM |  |
| CN1NC(c2ccccc2)=C(C#N)C(=O)CC1c1ccc(F)cc1 (centres undefined) | > 100 µM | > 100 µM | > 100 µM | > 100 µM |  | > 100 µM | > 100 µM | > 100 µM | > 100 µM | > 100 µM |
| Cn1c(=O)ccc2c(=O)c3ccccc3oc21 | > 100 µM | > 100 µM | > 100 µM | > 100 µM | > 100 µM | > 100 µM | > 100 µM |  | > 100 µM | > 100 µM |
| NC(=O)CCSC(CC(=O)c1ccc(Cl)cc1)c1ccc(Cl)cc1 (centres undefined) | 8.11 µM | 12.2 µM | 82.1 µM | > 100 µM | > 100 µM | > 100 µM | 45.2 µM | > 100 µM | > 100 µM | 97.8 µM |
| C/C(=C\C(=N\NC(=N)N)c1ccccc1)c1ccccc1 | 1.8 µM | 1.73 µM | 2.3 µM | 3.35 µM | 3.88 µM | 14.1 µM | 3.16 µM |  | 3.49 µM |  |
| Cc1cn(Cc2cn(CC3OC(n4cc(C)c(=O)[nH]c4=O)CC3O)nn2)c(=O)[nH]c1=O (centres undefined) | > 100 µM | > 100 µM | > 100 µM | > 100 µM |  | > 100 µM | > 100 µM | > 100 µM | > 100 µM | > 100 µM |
| Cc1cc(=O)n2c3c(c4c(cc13)c(CN(C)C)cc(=O)n4C)OC2 | > 100 µM | > 82.3 µM | 55.7 µM | > 77 µM | > 100 µM | > 88.6 µM | > 77.9 µM | > 70.5 µM | > 74.6 µM | > 100 µM |
| COP(=O)(OC)[C@H](O)[C@H]1C[C@@H]1c1ccccc1 |  | > 100 µM | > 100 µM | > 100 µM | > 100 µM | > 100 µM | > 100 µM | > 100 µM | > 100 µM | > 100 µM |
